Experiment: xn = mol fraction of the nth substance listed
Details: 298.15 K, 101 kPa, Liquid, holographic laser-interferometry using flow junction cell

CCCCCl [1-chlorobutane] + CCCO
binary diffusion coefficient (x1 = 0.013): 1.2e-09 m2/s
binary diffusion coefficient (x1 = 0.1): 1.18e-09 m2/s
binary diffusion coefficient (x1 = 0.3): 1.13e-09 m2/s
binary diffusion coefficient (x1 = 0.5): 1.09e-09 m2/s
binary diffusion coefficient (x1 = 0.7): 1.14e-09 m2/s
binary diffusion coefficient (x1 = 0.9): 1.45e-09 m2/s
binary diffusion coefficient (x1 = 0.97): 2.51e-09 m2/s

CC(C)=O [acetone] + CCCCO
binary diffusion coefficient (x1 = 0.0125): 9.5e-10 m2/s
binary diffusion coefficient (x1 = 0.1): 1e-09 m2/s
binary diffusion coefficient (x1 = 0.2): 1.07e-09 m2/s
binary diffusion coefficient (x1 = 0.3): 1.13e-09 m2/s
binary diffusion coefficient (x1 = 0.4): 1.29e-09 m2/s
binary diffusion coefficient (x1 = 0.5): 1.38e-09 m2/s
binary diffusion coefficient (x1 = 0.6): 1.49e-09 m2/s
binary diffusion coefficient (x1 = 0.7): 1.72e-09 m2/s
binary diffusion coefficient (x1 = 0.8): 1.85e-09 m2/s
binary diffusion coefficient (x1 = 0.9): 2.43e-09 m2/s
binary diffusion coefficient (x1 = 0.9915): 2.75e-09 m2/s
binary diffusion coefficient (x1 = 0.9925): 2.73e-09 m2/s

CCCO [propan-1-ol] + O
binary diffusion coefficient (x1 = 0.002): 1.04e-09 m2/s
binary diffusion coefficient (x1 = 0.05): 5.2e-10 m2/s
binary diffusion coefficient (x1 = 0.1): 1.7e-10 m2/s
binary diffusion coefficient (x1 = 0.2): 1e-10 m2/s
binary diffusion coefficient (x1 = 0.4): 1.9e-10 m2/s
binary diffusion coefficient (x1 = 0.6): 3.3e-10 m2/s
binary diffusion coefficient (x1 = 0.8): 5e-10 m2/s
binary diffusion coefficient (x1 = 0.9): 5.3e-10 m2/s

CC(C)=O [acetone] + O
binary diffusion coefficient (x1 = 0.004): 1.25e-09 m2/s
binary diffusion coefficient (x1 = 0.1): 8e-10 m2/s
binary diffusion coefficient (x1 = 0.3): 6.3e-10 m2/s
binary diffusion coefficient (x1 = 0.5): 8.3e-10 m2/s
binary diffusion coefficient (x1 = 0.7): 1.63e-09 m2/s
binary diffusion coefficient (x1 = 0.9): 3.44e-09 m2/s
binary diffusion coefficient (x1 = 0.975): 4.62e-09 m2/s

CC(C)=O [acetone] + CCCO
binary diffusion coefficient (x1 = 0.015): 1.14e-09 m2/s
binary diffusion coefficient (x1 = 0.1): 1.22e-09 m2/s
binary diffusion coefficient (x1 = 0.2): 1.33e-09 m2/s
binary diffusion coefficient (x1 = 0.3): 1.4e-09 m2/s
binary diffusion coefficient (x1 = 0.4): 1.49e-09 m2/s
binary diffusion coefficient (x1 = 0.5): 1.64e-09 m2/s
binary diffusion coefficient (x1 = 0.6): 1.74e-09 m2/s
binary diffusion coefficient (x1 = 0.7): 1.98e-09 m2/s
binary diffusion coefficient (x1 = 0.8): 2.4e-09 m2/s
binary diffusion coefficient (x1 = 0.9): 2.67e-09 m2/s
binary diffusion coefficient (x1 = 0.985): 3.12e-09 m2/s
